Experiments:
Assay type in all cases: cell-based, human
[1] = system: STAT3; test: Immunofluorescence of p-STAT3 nuclear translocation; settings: MCF-7 cells, 6 h then IL-6 50 ng/ml 30 min
Method: The basic protocol for the analysis of p-STAT3 subcellular location has been previously described. Briefly, MCF-7 cells were starved overnight, followed by incubation with 6b for 6 h. Cells were then stimulated with 50 ng/ml IL-6 for 30 min before being harvested in Tris-buffered saline (TBS) containing 1 mM sodium orthovanadate. Cells were transferred to polylysine-coated slides by cytospin and air dried for 20 min at room temperature. After being fixed in 2% of paraformaldehyde for 10 min and permeabilized in 0.1% Triton X-100 for 5 min, cells were blocked in TBS containing 5% bovine serum albumin for 1 h at room temperature before being stained with p-STAT3 (Tyr705) overnight at 4 °C. Then, cells were gently washed and incubated with FITC–conjugated, goat, anti-rabbit IgG (Beyotime Biotechnology Ltd). Finally, slides were incubated with 5 μg/ml of 4′,6-diamidino-2-phenylindole (DAPI, Beyotime) for 5 min. The subcellular location and relative abundance of p-STAT3 were immediately analyzed with an ImageXpress Micro Confocal analysis.

[2] = system: Bcl-2; test: Western blot of Bcl-2; settings: MCF-7 and MCF-7/DOX cells, 24 h
Method: (§1) MCF-7 or MCF-7/DOX cells were incubated with various concentrations of 6b for 24 h. After trypsinization, cells were treated with 1× RIPA lysis buffer (50 mM Tris–HCl, pH 7.4, 150 mM NaCl, 0.25% deoxycholic acid, 1% NP-40, 1 mM EDTA and protease inhibitors) (Amresco, Solon, USA) to extract the total proteins. An aliquot of proteins from the total cell lysates (30 to 60 μg/lane) was separated by sodium dodecyl sulfate (10%) polyacrylamide gel electrophoresis (SDS–PAGE, Bio-Rad Laboratories, Hercules, CA), wet-transferred to NC membrane (Bio-Rad Laboratories, Hercules, CA) and blotted with primary antibodies specific for STAT3, p-STAT3, p-Jak2, Jak2, p-Src, Src, Erk, P-Erk, PARP, cleaved PARP, Bcl-2, Bax, Cyclin D1, P-gp and GAPDH. Bound immuno-complexes were detected using ChemiDOC™ XRS + system (Bio-Rad Laboratories, Hercules, CA).

[3] = system: Cyclin D1; test: Western blot of Cyclin D1; settings: MCF-7 and MCF-7/DOX cells, 24 h
Method: as §1

[4] = system: Bcl-2 gene; test: Quantitative real-time RT-PCR of Bcl-2; settings: 24 h
Method: Levels of mRNA expression were analyzed with the RT-PCR assay, with total RNA isolated from MCF-7 or MCF-7/DOX cells using an EASYspin Plus tissue/cell RNA extraction kit (Aidlab Biotechnologies Co. Ltd). RNA was quantified by measuring absorption at 260 nm and 1 μg of RNA was reverse transcribed to cDNA using the Transcriptor First Strand cDNA Synthesis Kit (Roche Diagnostics, Basel, Switzerland). Thermal cycling conditions included 95 °C initial denaturation for 5 min, followed by 40 cycles of denaturation (10 s at 95 °C), annealing (15 s at 60 °C) and extension (15 s at 72 °C with a single fluorescence measurement), a melt curve program (60–95 °C with a 0.11 °C/s heat increase and continuous fluorescence measurement) and a cooling step to 40 °C. The Δ cycle threshold method was used for the calculation of relative differences in mRNA abundance with a LightCycler 480 (Roche Molecular Biochemicals, Mannheim, Germany). The data were normalized to the expression of GAPDH. The results were expressed as fold-changes. The RT-PCR primers that were used in this study are listed in the supporting information.

[5] = system: PARP, Caspase 9 and Caspase 3; test: Western blot of cleaved PARP, Caspase 9 and Caspase 3
[6] = system: MCF-7 cells; test: Annexin V-APC/7-AAD flow cytometry of apoptosis, MCF-7; settings: 24 h
Method: (§2) MCF-7, MCF-7/DOX or MCF-10A cells, at a density of 2.5 × 10^5 cells per well, were cultured in regular growth medium in 6-well plates for 24 h and treated in duplicate with different concentrations of 6b or curcumin for 24 h. The cells were harvested, washed and stained with 5 μL of Annexin V-APC and 5 μL of 7-AAD at room temperature for 15 min. Cells were then analyzed by flow cytometry (488 nm excitation and 600 nm emission filters) using a BD FACSCalibur flow cytometer (Becton & Dickinson Company, Franklin Lakes, NJ).

[7] = system: MCF-7/DOX cells; test: Annexin V-APC/7-AAD flow cytometry of apoptosis, MCF-7/DOX; settings: 24 h
Method: as §2

[8] = system: MCF-10A cells; test: Annexin V-APC/7-AAD flow cytometry of apoptosis, MCF-10A; settings: concentrations up to 4 μM
Method: as §2

[9] = system: MCF-7 cells; test: Colony survival assay, MCF-7; settings: 24 h treatment, 14 d culture
Method: (§3) MCF-7 or MCF-7/DOX cells were cultured a 6-well plate at a density of 800–1,000 cells/well with regular growth medium. Cells were treated for 24 h with the vehicle and 6b at 0.15–1 μM on the following day. Cells were allowed to grow for 10–14 d until colonies were visible. Crystal violet solution (Sigma, St. Louis, MO, USA) was used to stain the colonies for 4 hours and colonies were imaged.

[10] = system: MCF-7/DOX cells; test: Colony survival assay, MCF-7/DOX; settings: 24 h treatment, 14 d culture
Method: as §3

[11] = system: MCF-7 cells; test: Flow cytometry of the cell cycle, MCF-7; settings: MCF-7, 24 h
Method: MCF-7 or MCF-7/DOX cells were plated in 6-well culture plates (1.5 × 10^5 cells per well). After incubation overnight, various concentrations of 6b or curcumin were added and cells were incubated for 24 h. Cells were harvested, washed with cold PBS, and incubated with pre-cooled 70% ethanol for a minimum of 4 h at 4 °C to fix them. The cells were then centrifuged, carefully aspirated from the supernatant, and re-suspended in a propidium iodide (final concentration, 40 μg/ml) and RNase A (final concentration, 100 μg/ml) solution at a final cell density of 0.5 × 10^6 cells/ml. The suspension was incubated at 37 °C for 30 min prior to analysis by flow cytometry.

[12] = system: Src; test: Western blot of p-Src; settings: MCF-7 and MCF-7/DOX cells, 24 h
Method: as §1

Question: Which results are given for COc1ccc(/C=C/C(=O)N2CCN(C(=O)C3=Cc4cc(Br)ccc4S3(=O)=O)CC2)cc1 [Compound 6b, (E)-1-(4-(5-bromo-1,1-dioxidobenzo[b]thiophene-2-carbonyl)piperazin-1-yl)-3-(4-methoxyphenyl)prop-2-en-1-one]?
Answer: p-STAT3 level in the nucleus [1]: sharp decrease; expression of Bcl-2 (protein) [2]: inhibited; expression of Cyclin D1 (protein) [3]: inhibited; decrease in the gene expression level of Bcl-2 ([4]; MCF-7/DOX cells, 1.0 μM): 27.5%; decrease in the gene expression level of Bcl-2 ([4]; MCF-7/DOX cells, 2.0 μM): 43.5%; decrease in the gene expression level of Bcl-2 ([4]; MCF-7/DOX cells, 4.0 μM): 71.0%; Bcl-2 gene level (in words) ([4]; MCF-7 and MCF-7/DOX cells): decreased in a dose-dependent manner; decrease in the gene expression level of Bcl-2 ([4]; MCF-7 cells, 1.0 μM): 11.7%; decrease in the gene expression level of Bcl-2 ([4]; MCF-7 cells, 2.0 μM): 45.8%; decrease in the gene expression level of Bcl-2 ([4]; MCF-7 cells, 4.0 μM): 61.2%; cleavage of PARP, Caspase 9 and Caspase 3 ([5]; MCF-7 and MCF-7/DOX cells): induced the cleavage; cleaved PARP ([5]; MCF-10A cells, concentrations up to 4 μM): little; apoptosis rate ([6]; 1 μM): 15.7%; apoptosis rate ([6]; 2 μM): 37.9%; apoptosis rate ([6]; 4 μM): 67.2%; apoptosis rate ([7]; 1 μM): 18.5%; apoptosis rate ([7]; 2 μM): 50.1%; apoptosis rate ([7]; 4 μM): 66.4%; apoptosis [8]: little; clonogenic ability / colony formation ([9]; MCF-7, 0.25 μM): significant reduction in clonogenic ability; clonogenic ability / colony formation ([9]; MCF-7, 0.5 μM): almost a cessation of colony formation; clonogenic ability / colony formation ([10]; 0.25 μM): significant reduction in clonogenic ability; clonogenic ability / colony formation ([10]; 0.5 μM): almost a cessation of colony formation; cells in the Sub-G1 phase [11]: significant increase; percentage of cells in S phase [11]: increased; p-Src expression [12]: little effect
